Experimental data taken from US20130079305A1, “3-SUBSTITUTED VINYLBORONATES AND USES THEREOF” (Yissum Research Development Company of the Hebrew …, priority 2010, published 2013).

Columns and labels:
[1] = test system: HT-29 (colon cancer) cells; test: MTT assay, HT-29 (colon cancer) cells; type: cell-based; settings: Homo sapiens, HT-29 cells, 72 h incubation
Description: (§1) ARH-77 (myeloma) and HT-29 (colon cancer) cells were grown and counted, and were thereafter plated in 96-wells plates to get 0.1×10^6 cells/well. The plates were left in the incubator overnight for cells attachment and the tested compounds were then added to the cells. The tested concentrations of the compounds were 1, 2, 5, 10, 20, 50 and 100 μM. The compounds were incubated with the cells for 24 hours, 48 hours or for 72 hours, and were thereafter subjected to the MTT assay.

ARH-77 (myeloma) cells = test: MTT assay, ARH-77 (myeloma) cells; type: cell-based; settings: ARH-77 cells; for IC50: Homo sapiens, 72 h incubation
Description: as §1

`CCC/C(=C\B1OC(C)(C)C(C)(C)O1)C(O)(c1ccccc1)C1CC1` (centres unmarked) [Compound E2] showed an IC50 [1] of 85 µM and an IC50 (ARH-77 (myeloma) cells) of 54 µM.
`CCC/C(=C\B1OC(C)(C)C(C)(C)O1)C1(O)CCCc2ccccc21` (centres unmarked) [Compound E3] was tested, and the IC50 [1] was 85 µM and the IC50 (ARH-77 (myeloma) cells) was 65 µM.
With `CCC/C(=C\B1OC(C)(C)C(C)(C)O1)C(O)c1ccccc1` (centres unmarked) [Compound E4] the IC50 [1] was over 100 µM and the “IC50, ARH-77, 72 h incubation” value (ARH-77 (myeloma) cells) was “not active”.
Compound `CCCCCCC(C)(O)/C(=C/B1OC(C)(C)C(C)(C)O1)CCC` (centres unmarked) [Compound E5] has an IC50 [1] of 55 µM and an IC50 (ARH-77 (myeloma) cells) of 30 µM.
`CCCCC(C)(O)/C(=C/B1OC(C)(C)C(C)(C)O1)CCC` (centres unmarked) [Compound E6] gave an IC50 [1] of 80 µM and an IC50 (ARH-77 (myeloma) cells) of 54 µM.
In the case of `CCCCCCCC/C(=C\B1OC(C)(C)C(C)(C)O1)C(O)(c1ccccc1)C1CC1` (centres unmarked) [Compound E7], the IC50 [1] is reported as 15 µM and the IC50 (ARH-77 (myeloma) cells) is reported as 6 µM.
Work on `CCCCCCCC/C(=C\B1OC(C)(C)C(C)(C)O1)C(C)(O)CCCCCC` (centres unmarked) [Compound E8] yielded an IC50 [1] of over 100 µM and an IC50 (ARH-77 (myeloma) cells) of 78 µM.
